Experimental data reported in article PMC4639919 (Neurochemical research, 2015).

Target: α6β2* nicotinic acetylcholine receptor (α6 subunit) (Rattus norvegicus, UniProt P12390+P43143)
Sequence (P43143 31-493 limits assumed): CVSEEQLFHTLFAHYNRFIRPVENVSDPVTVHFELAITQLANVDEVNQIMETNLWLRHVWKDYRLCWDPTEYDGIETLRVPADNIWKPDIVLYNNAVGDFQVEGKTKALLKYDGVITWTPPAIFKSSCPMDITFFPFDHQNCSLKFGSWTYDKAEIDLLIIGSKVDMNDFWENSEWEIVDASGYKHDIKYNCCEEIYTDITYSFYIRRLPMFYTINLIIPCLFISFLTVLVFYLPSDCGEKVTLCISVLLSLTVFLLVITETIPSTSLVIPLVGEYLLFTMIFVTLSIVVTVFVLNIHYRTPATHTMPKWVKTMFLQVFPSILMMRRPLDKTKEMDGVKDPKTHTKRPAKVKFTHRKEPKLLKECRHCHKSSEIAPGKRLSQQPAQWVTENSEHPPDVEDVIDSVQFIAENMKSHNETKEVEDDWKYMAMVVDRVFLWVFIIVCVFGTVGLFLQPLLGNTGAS
Sequence (P12390 25-500 limits assumed): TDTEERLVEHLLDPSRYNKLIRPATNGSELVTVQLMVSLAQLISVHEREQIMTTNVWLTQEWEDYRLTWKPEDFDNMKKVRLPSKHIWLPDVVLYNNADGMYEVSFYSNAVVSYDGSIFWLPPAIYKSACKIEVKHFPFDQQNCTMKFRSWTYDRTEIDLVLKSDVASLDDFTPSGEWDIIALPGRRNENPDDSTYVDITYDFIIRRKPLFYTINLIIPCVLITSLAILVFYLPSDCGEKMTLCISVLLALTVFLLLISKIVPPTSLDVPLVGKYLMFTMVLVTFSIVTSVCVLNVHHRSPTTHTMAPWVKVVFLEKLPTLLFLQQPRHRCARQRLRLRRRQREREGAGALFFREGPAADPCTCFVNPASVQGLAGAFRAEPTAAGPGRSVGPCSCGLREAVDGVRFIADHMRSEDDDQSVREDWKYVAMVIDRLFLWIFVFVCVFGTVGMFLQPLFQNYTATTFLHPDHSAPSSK

SMILES: CC1=CCCN(CCCCCCCCCCN2CCC=C(C)C2)C1 [r-bPiDI, 1,10-bis(3-methyl-5,6-dihydropyridin-1(2H)-yl)decane]
- IC50: 0.0375 ± 0.0187 µM
